Data: patent US20230104936A1, “TRPML MODULATORS” (Casma Therapeutics, Inc., priority 2019, published 2023)

Test system: TFEB
Experiment: TFEB nuclear translocation assay, HeLa wt cells
Type: cell-based
Settings: 2 hrs compound treatment, Table 1 does not say HeLa wt or TRPML1 KO
In short: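 AC50 derived from the ratio of nuclear to perinuclear ring (−5 μm) anti-TFEB immunofluorescence, imaged at ×20 over four fields per well. HeLa wt or TRPML1 KO cells were exposed to compounds for 2 hrs at 37° C, then PFA-fixed and counterstained with Hoechst.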

Compound | AC50 (Homo sapiens, HeLa, 2 h) [nM] | AC50 [nM]
CN(C)S(=O)(=O)c1ccc(S(=O)(=O)Nc2ccccc2N2CCC(C)(c3ccccc3Cl)CC2)cc1 [Compound A-183, N4-{2-[4-(2-chlorophenyl)-4-methylpiperidin-1-yl]phenyl}-N1,N1-dimethylbenzene-1,4-disulfonamide] | ≤ 2000 | 
O=S(=O)(Nc1ccccc1N1CCC(c2ccc(Cl)cc2F)CC1)c1ccc(C(O)C(F)(F)F)cc1 (stereo not drawn) [Compound A-157, N-{2-[4-(4-chloro-2-fluorophenyl)piperidin-1-yl]phenyl}-4-(2,2,2-trifluoro-1-hydroxyethyl)benzene-1-sulfonamide] | ≤ 2000 | 
CC(c1cccnc1N1CCC(CN2C[C@@H](C)O[C@@H](C)C2)CC1)S(=O)(=O)c1ccc(S(=O)(=O)N(C)C)cc1 (stereo partly drawn) [Compound A-879, 4-{1-[2-(4-{[(2R,6S)-2,6-dimethylmorpholin-4-yl]methyl}piperidin-1-yl)pyridin-3-yl]ethanesulfonyl}-N,N-dimethylbenzene-1-sulfonamide] | ≤ 2000 | 
CC(c1cccc(F)c1N1CCCCC1)S(=O)(=O)c1ccc(S2(=O)=NCCC2)cc1 (single isomer, unassigned) [Compound A-981, 1-(4-((1-(3-fluoro-2-(piperidin-1-yl)phenyl)ethyl)sulfonyl)phenyl)-4,5-dihydro-3H-isothiazole 1-oxide] |  | ≥ 10000
COCC1(C)CCN(c2ccccc2NS(=O)(=O)c2ccc3c(c2)CCC3)CC1 [Compound A-608, N-{2-[4-(methoxymethyl)-4-methylpiperidin-1-yl]phenyl}-2,3-dihydro-1H-indene-5-sulfonamide] | ≤ 2000 | 
CN(C)S(=O)(=O)c1ccc(S(=O)(=O)Nc2ccccc2N2CCN(CC3CCOCC3)CC2)cc1 [Compound A-510, N1,N1-dimethyl-N4-(2-{4-[(oxan-4-yl)methyl]piperazin-1-yl}phenyl)benzene-1,4-disulfonamide] | ≤ 2000 | 
CN1CC2(CCN(c3ccccc3NS(=O)(=O)c3ccc(S(=O)(=O)N(C)C)cc3)CC2)c2ccc(F)cc21 [Compound A-215, N4-(2-{6-fluoro-1-methyl-1,2-dihydrospiro[indole-3,4′-piperidin]-1′-yl}phenyl)-N1,N1-dimethylbenzene-1,4-disulfonamide] | ≤ 2000 | 
O=S(=O)(Cc1ccon1)Nc1cccc(Cl)c1N1CCOCC1 [Compound A-365, N-[3-chloro-2-(morpholin-4-yl)phenyl]-1-(1,2-oxazol-3-yl)methanesulfonamide] | ≥ 10000 | 
COc1ccc(S(=O)(=O)Nc2ccccc2Oc2ccc(F)cc2F)cc1 [Compound A-186, N-(2-(2,4-difluorophenoxy)phenyl)-4-methoxybenzenesulfonamide] | ≥ 10000 | 
CCS(=O)(=O)c1ccc(S(=O)(=O)Nc2ccccc2N2CCN(C(=O)C(C)(C)C)CC2)cc1 [Compound A-351, N-{2-[4-(2,2-dimethylpropanoyl)piperazin-1-yl]phenyl}-4-(ethanesulfonyl)benzene-1-sulfonamide] | ≥ 10000 | 
CN(C)S(=N)(=O)c1ccc(S(=O)(=O)Nc2cccc(F)c2N2CCC(C3(N4CCOCC4)CC3)CC2)cc1 (stereo not drawn) [Compound A-858, 4-[(3-fluoro-2-{4-[1-(morpholin-4-yl)cyclopropyl]piperidin-1-yl}phenyl)sulfamoyl]-N,N-dimethylbenzene-1-sulfonoimidamide] | ≤ 2000 | 
CN(C)S(=O)(=O)c1ccc(S(=O)(=O)Nc2ccccc2N2CCC(CCCN3CCOCC3)CC2)cc1 [Compound A-547, N1,N1-dimethyl-N4-(2-{4-[3-(morpholin-4-yl)propyl]piperidin-1-yl}phenyl)benzene-1,4-disulfonamide] | ≤ 2000 | 
COCCOCC1(C)CCN(c2ccccc2NS(=O)(=O)c2ccc(S(=O)(=O)N(C)C)cc2)CC1 [Compound A-518, N4-(2-{4-[(2-methoxyethoxy)methyl]-4-methylpiperidin-1-yl}phenyl)-N1,N1-dimethylbenzene-1,4-disulfonamide] | ≤ 2000 | 
C[C@@H]1COC[C@@H](C)N1C[C@H]1CCN(c2c(F)cccc2NS(=O)(=O)c2ccc(S(=O)(=O)N(C)C)cc2)C1 (relative stereo) [Compound A-897, N4-{2-[(3R)-3-{[3,5-dimethylmorpholin-4-yl]methyl}pyrrolidin-1-yl]-3-fluorophenyl}-N1,N1-dimethylbenzene-1,4-disulfonamide] | ≤ 2000 | 
O=S(=O)(Nc1ccccc1N1CCC(c2ccc(Cl)cc2F)CC1)c1ccc(C(F)(F)F)c(F)c1 [Compound A-158, N-{2-[4-(4-chloro-2-fluorophenyl)piperidin-1-yl]phenyl}-3-fluoro-4-(trifluoromethyl)benzene-1-sulfonamide] | ≤ 2000 | 
Cc1ccc(S(=O)(=O)Nc2ccccc2N2CCC3(CC2)COC(C)(C)C3)cc1F [Compound A-692, N-(2-{3,3-dimethyl-2-oxa-8-azaspiro[4.5]decan-8-yl}phenyl)-3-fluoro-4-methylbenzene-1-sulfonamide] | 2010 to 8000 | 
C[C@@H]1C[C@@]2(CCN1c1ccccc1NS(=O)(=O)c1ccc(S(=O)(=O)N(C)C)cc1)COC(C)(C)C2 (racemic) [Compound A-799, N1,N1-dimethyl-N4-(2-((5R,7R)-3,3,7-trimethyl-2-oxa-8-azaspiro[4.5]decan-8-yl)phenyl)benzene-1,4-disulfonamide] | ≤ 2000 | 
CS(=O)(=O)c1ccc(S(=O)(=O)Nc2ccccc2N2CCC(c3c(F)cc(F)cc3F)CC2)cc1 [Compound A-132, 4-methanesulfonyl-N-{2-[4-(2,4,6-trifluorophenyl)piperidin-1-yl]phenyl}benzene-1-sulfonamide] | ≤ 2000 | 
CCCOc1ccc(S(=O)(=O)Nc2ccccc2N2CCN(C(=O)C(C)(C)C)CC2)cc1 [Compound A-573, N-{2-[4-(2,2-dimethylpropanoyl)piperazin-1-yl]phenyl}-4-propoxybenzene-1-sulfonamide] | 8010 to 9990 | 
CN(C)S(=O)(=O)c1ccc(S(=O)(=O)Nc2cccc(F)c2N2CCC(CN3C4CCC3COC4)CC2)cc1 [Compound A-790, N4-{3-fluoro-2-[4-({3-oxa-8-azabicyclo[3.2.1]octan-8-yl}methyl)piperidin-1-yl]phenyl}-N1,N1-dimethylbenzene-1,4-disulfonamide] | ≤ 2000 | 
C[C@H]1COC[C@H](C)N1CC1CCN(c2c(F)cccc2NS(=O)(=O)c2ccc(S(=N)(=O)N(C)C)cc2)CC1 (single isomer, unassigned) [Compound A-834] | ≤ 2000 | 
CC(c1cc(Cl)cnc1N1CCC(CN2CCC(F)(F)CC2)CC1)S(=O)(=O)c1ccc2c(c1)CCC2 (single isomer, unassigned) [Compound A-993, 5-chloro-2-(4-((4,4-difluoropiperidin-1-yl)methyl)piperidin-1-yl)-3-(1-((2,3-dihydro-1H-inden-5-yl)sulfonyl)ethyl)pyridine] | ≤ 2000 | 
CN(C)S(=O)(=O)c1ccc(S(=O)(=O)c2ccccc2N2CCC(c3ccc(Cl)cc3F)CC2)cc1 [Compound A-156, 4-((2-(4-(4-chloro-2-fluorophenyl)piperidin-1-yl)phenyl)sulfonyl)-N,N-dimethylbenzenesulfonamide] | 2010 to 8000 | 
CN(C)S(=O)(=O)c1ccc(S(=O)(=O)Nc2ccccc2N2CCN(C(=O)C3(C)CCC3)CC2)cc1 [Compound A-425, N1,N1-dimethyl-N4-{2-[4-(1-methylcyclobutanecarbonyl)piperazin-1-yl]phenyl}benzene-1,4-disulfonamide] | 2010 to 8000 | 
